Assay results taken from BindingDB's records for PubMed 35175760 (Shandong University, 2022).

Assays:
[1] = Inhibition of HIV-1 reverse transcriptase E138K mutant assessed as reduction in luciferase reporter activity by single-round assay
[2] = Inhibition of HIV-1 reverse transcriptase Y188L mutant assessed as reduction in luciferase reporter activity by single-round assay
[3] = Inhibition of wild type HIV-1 reverse transcriptase assessed as reduction in luciferase reporter activity by single-round assay
[4] = Inhibition of HIV-1 reverse transcriptase K103N mutant assessed as reduction in luciferase reporter activity by single-round assay
[5] = Inhibition of HIV-1 reverse transcriptase Y181C mutant assessed as reduction in luciferase reporter activity by single-round assay

SMILES	EC50 [1]	EC50 [2]	EC50 [3]	EC50 [4]	EC50 [5]
Cc1cc(/C=C/C#N)cc(C)c1Nc1ncc2ncn(-c3ccc(C#N)cc3)c2n1	25 nM	91 nM	4.5 nM	6.5 nM	26 nM
Cc1cc(/C=C/C#N)cc(C)c1-n1cnc2cnc(Nc3ccc(C#N)cc3)nc21	0.7 nM	9.6 nM	0.2 nM	0.4 nM	1.5 nM
Cc1cc(/C=C/C#N)cc(C)c1Nc1ccnc(Nc2ccc(C#N)cc2)n1 [Rilpivirine]	–	–	0.4 nM	–	–
